Experimental data as given in US9663513B2, “Pyrimidine PDE10 inhibitors” (Merck Sharp & Dohme Corp., priority 2012, dated 2017).

Biological target: human PDE10A2 (Homo sapiens (Human), UniProt Q9Y233)
Assay: PDE10 fluorescence polarization (IMAP FP) inhibition assay
Assay type: biochemical
Conditions: human PDE10A2 from transfected AD293 cells; FAM-labeled cAMP 50 nM; apparent inhibition constant; read-out: PDE10A Ki
Procedure: The activity of the compounds in accordance with the present invention as PDE10 inhibitors may be readily determined without undue experimentation using a fluorescence polarization (FP) methodology that is well known in the art (Huang, W., et al., J. Biomol Screen, 2002, 7: 215).
In a typical experiment the PDE10 inhibitory activity of the compounds of the present invention was determined in accordance with the following experimental method. PDE10A2 was amplified from human fetal brain cDNA (Clontech, Mountain View, Calif.) using a forward primer corresponding to nucleotides 56-77 of human PDE10A2 (Accession No. AF127480, Genbank Identifier 4894716), containing a Kozak consensus sequence, and a reverse primer corresponding to nucleotides 2406-2413 of human PDE10A2 (Accession No. AF127480, Genbank Identifier 4894716). Amplification with Easy-A polymerase (Stratagene, La Jolla, Calif.) was 95° C. for 2 minutes followed by thirty three cycles of 95° C. for 40 seconds, 55° C. for 30 seconds, and 72° C. for 2 minutes 48 seconds. Final extension was 72° C. for 7 minutes. The PCR product was TA cloned into pcDNA3.2-TOPO (Invitrogen, Carlsbad, Calif.) according to standard protocol. AD293 cells with 70-80% confluency were transiently transfected with human PDE10A2/pcDNA3.2-TOPO using Lipofectamine 2000 according to manufacturer specifications (Invitrogen, Carlsbad, Calif.). Cells were harvested 48 hours post-transfection and lysed by sonication (setting 3, 10×5 sec pulses) in a buffer containing 20 mM HEPES, 1 mM EDTA and protease inhibitor cocktail (Roche). Lysate was collected by centrifugation at 75,000×g for 20 minutes. Supernatant containing the cytoplasmic fraction was used for evaluation of PDE10A2 activity. The fluorescence polarization assay for cyclic nucleotide phosphodiesterases was performed using an IMAP® FP kit supplied by Molecular Devices, Sunnyvale, Calif. (product # R8139). IMAP® technology has been applied previously to phosphodiesterase assays (Huang, W., et al., J. Biomol Screen, 2002, 7: 215). Assays were performed at room temperature in 384-well microtiter plates with an incubation volume of 20.2 μL. Solutions of test compounds were prepared in DMSO and serially diluted with DMSO to yield 8 μL of each of 10 solutions differing by 3-fold in concentration, at 32 serial dilutions per plate. […] 0% of inhibition is determined by using DMSO (1% final concentrations).
A Labcyte Echo 555 (Labcyte, Sunnyvale, Calif.) is used to dispense 200 nL from each well of the titration plate to the 384 well assay plate. A solution of enzyme (1/1600 dilution from aliquots; sufficient to produce 20% substrate conversion) and a separate solution of FAM-labeled cAMP PDE from Molecular Devices (product # R7506), at a final concentration of 50 nM are made in the assay buffer (10 mM Tris HCl, pH 7.2, 10 mM MgCl2, 0.05% NaN3 0.01% Tween-20, and 1 mM DTT). The enzyme and the substrate are then added to the assay plates in two consecutive additions of 10 μL, and then shaken to mix. The reaction is allowed to proceed at room temperature for 30 minutes. […] The enzymatic reaction is stopped by addition of 60 μL of the binding solution to each well of the assay plates and the plates are sealed and shaken for 10 seconds. The plate was incubated at room temperature for at least one hour prior to determining the fluorescence polarization (FP). The parallel and perpendicular fluorescence of each well of the plate was measured using a Perkin Elmer EnVision™ plate reader (Waltham, Mass.).
Fluorescence polarization (mP) was calculated from the parallel (S) and perpendicular (P) fluorescence of each sample well and the analogous values for the median control well, containing only substrate (So and Po), using the following equation: Polarization(mP)=1000*(S/So−P/Po)/(S/So+P/Po).
Dose-inhibition profiles for each compound were characterized by fitting the mP data to a four-parameter equation given below.

Sequence of human PDE10A2 (Q9Y233 267-1055): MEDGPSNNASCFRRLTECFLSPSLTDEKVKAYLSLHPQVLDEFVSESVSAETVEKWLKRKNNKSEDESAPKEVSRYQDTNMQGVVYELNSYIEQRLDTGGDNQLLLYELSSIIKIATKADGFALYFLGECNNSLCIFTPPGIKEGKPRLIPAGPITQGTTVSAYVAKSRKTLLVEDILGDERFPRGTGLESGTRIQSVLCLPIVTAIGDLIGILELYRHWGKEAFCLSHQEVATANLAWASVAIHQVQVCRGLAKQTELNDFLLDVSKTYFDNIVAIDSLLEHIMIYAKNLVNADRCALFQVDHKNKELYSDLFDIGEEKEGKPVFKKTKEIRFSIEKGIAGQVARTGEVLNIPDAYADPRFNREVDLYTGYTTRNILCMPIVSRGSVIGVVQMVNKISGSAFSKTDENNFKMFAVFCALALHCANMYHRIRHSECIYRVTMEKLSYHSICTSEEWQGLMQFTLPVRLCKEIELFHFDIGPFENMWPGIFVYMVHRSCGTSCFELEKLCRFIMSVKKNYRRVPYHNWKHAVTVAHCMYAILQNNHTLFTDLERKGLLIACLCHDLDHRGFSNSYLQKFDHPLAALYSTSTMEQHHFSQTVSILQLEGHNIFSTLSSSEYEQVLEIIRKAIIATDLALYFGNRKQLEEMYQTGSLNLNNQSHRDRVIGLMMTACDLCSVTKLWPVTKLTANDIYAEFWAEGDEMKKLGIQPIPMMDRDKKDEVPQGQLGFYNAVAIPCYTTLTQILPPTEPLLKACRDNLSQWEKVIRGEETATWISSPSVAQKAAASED

| Ki [nM] | Compound |
| --- | --- |
| 0.51 | Cc1ncc(-c2ncccc2F)c(OC[C@H]2C[C@@H]2c2ccc3ccccc3n2)n1 [Example 127, 2-((1S,2S)-2-((5-(3-fluoropyridin-2-yl)-2-methylpyrimidin-4-yloxy)methyl)cyclopropyl)quinoline] |
| 4.78 | COc1ccc([C@H]2C[C@@H]2COc2nc(C)ncc2-c2ccc(OC(CO)CO)nc2)nc1 [Example 71, 2-(5-(4-(((1S,2S)-2-(5-methoxypyridin-2-yl)cyclopropyl)methoxy)-2-methylpyrimidin-5-yl)pyridin-2-yloxy)propane-1,3-diol] |
| 0.18 | COc1ccc([C@H]2C[C@@H]2COc2nc(C)ncc2-c2ccnc(OC(C)C)c2)nc1 [Example 74, 5-(2-isopropoxypyridin-4-yl)-4-(((1S,2S)-2-(5-methoxypyridin-2-yl)cyclopropyl)methoxy)-2-methylpyrimidine] |
| 0.48 | COc1ccc([C@H]2C[C@@H]2COc2nc(C)ncc2C2CCCC(=O)C2)nc1 (stereo partly drawn) [Example 207, 3-(4-(((1S,2S)-2-(5-Methoxypyridin-2-yl)cyclopropyl)methoxy)-2-methylpyrimidin-5-yl)cyclohexanone] |
| 37.3 | Cc1ccc([C@H]2C[C@@H]2COc2nc(C)ncc2-c2cccn3ccnc23)nc1 [Example 135, 8-(2-methyl-4-(((1S,2S)-2-(5-methylpyridin-2-yl)cyclopropyl)methoxy)pyrimidin-5-yl)imidazo[1,2-a]pyridine] |
| 0.12 | COc1ccc([C@H]2C[C@@H]2COc2nc(C)ncc2-c2ccc(C3(O)CCC3)nc2)nc1 [Example 92, 1-(5-(4-(((1S,2S)-2-(5-methoxypyridin-2-yl)cyclopropyl)methoxy)-2-methylpyrimidin-5-yl)pyridin-2-yl)cyclobutano1] |
| 5.08 | CCOc1cccc(-c2cnc(C)nc2OC[C@H]2C[C@@H]2c2ccc3ccccc3n2)c1 (single isomer, unassigned) [Example 41, 2,2,2-trifluoroacetate] |
| 0.01 | Cc1ncc(-c2ccc(C(C)O)cc2)c(OC[C@H]2C[C@@H]2c2ccc3ccccc3n2)n1 (single isomer, unassigned) [Example 34] |
| 2.14 | Cc1ccc([C@H]2C[C@@H]2COc2nc(C)ncc2-c2cccc(C(C)C)c2)nc1 [Example 4, 5-(3-isopropylphenyl)-2-methyl-4-(((1S,2S)-2-(5-methylpyridin-2-yl)cyclopropyl)methoxy)pyrimidine] |
| 0.44 | COc1ccc([C@H]2C[C@@H]2COc2nc(C)ncc2-c2cc(C(F)(F)F)cnc2Cl)nc1 [Example 87, 5-(2-chloro-5-(trifluoromethyl)pyridin-3-yl)-4-(((1S,2S)-2-(5-methoxypyridin-2-yl)cyclopropyl)methoxy)-2-methylpyrimidine] |
| 0.94 | COc1ccc([C@H]2C[C@@H]2COc2nc(C)ncc2-c2ccc(O)nc2)nc1 [Example 69, 5-(4-(((1S,2S)-2-(5-methoxypyridin-2-yl)cyclopropyl)methoxy)-2-methylpyrimidin-5-yl)pyridin-2-ol] |
| 0.04 | Cc1ncc(-c2ccc3nccn3c2)c(OC[C@H]2C[C@@H]2c2ccc3ccccc3n2)n1 [Example 136, 2-((1S,2S)-2-((5-(imidazo[1,2-a]pyridin-6-yl)-2-methylpyrimidin-4-yloxy)methyl)cyclopropyl)quinoline] |
| 0.15 | COc1ccc([C@H]2C[C@@H]2COc2nc(C)ncc2-c2ccc(-c3ncno3)cc2)nc1 [Example 93, 5-(4-(4-(((1S,2S)-2-(5-methoxypyridin-2-yl)cyclopropyl)methoxy)-2-methylpyrimidin-5-yl)phenyl)-1,2,4-oxadiazole] |
| 3.02 | Cc1ccc([C@H]2C[C@@H]2COc2nc(C)ncc2-c2cnnc(C)c2)nc1 [Example 58, 3-methyl-5-(2-methyl-4-(((1S,2S)-2-(5-methylpyridin-2-yl)cyclopropyl)methoxy)pyrimidin-5-yl)pyridazine] |
| 2.92 | Cc1ccnc([C@H]2C[C@@H]2COc2nc(C)ncc2-c2cn(C)nc2C(C)O)c1 (stereo partly drawn) [Example 160, 1-(1-methyl-4-(2-methyl-4-(((1S,2S)-2-(4-methylpyridin-2-yl)cyclopropyl)methoxy)pyrimidin-5-yl)-1H-pyrazol-3-yl)ethanol] |
| 1.17 | COc1ccc([C@H]2C[C@@H]2COc2nc(C)ncc2-c2ccc(-c3nc(CCl)no3)cc2)nc1 [Example 94, 3-(chloromethyl)-5-(4-(4-(((1S,2S)-2-(5-methoxypyridin-2-yl)cyclopropyl)methoxy)-2-methylpyrimidin-5-yl)phenyl)-1,2,4-oxadiazole] |
| 0.16 | COc1ccc([C@H]2C[C@@H]2COc2nc(C)ncc2-c2ccc(C3(O)COC3)nc2)nc1 [Example 91] |
| 22.4 | Cc1ccc([C@H]2C[C@@H]2COc2nc(C)ncc2-c2cccoc2=O)nc1 [Example 49, 3-(2-methyl-4-(((1S,2S)-2-(5-methylpyridin-2-yl)cyclopropyl)methoxy)pyrimidin-5-yl)-2H-pyran-2-one] |
| 7.7 | COc1ccc([C@H]2C[C@@H]2COc2nc(C)ncc2-c2cnco2)nc1 [Example 255, 5-(4-(((1S,2S)-2-(5-methoxypyridin-2-yl)cyclopropyl)methoxy)-2-methylpyrimidin-5-yl)oxazole] |
| 12.6 | Cc1ccc([C@H]2C[C@@H]2COc2nc(C)ncc2[C@H]2CC[C@@H](C(C)(C)O)CC2)nc1 [Example 221, (cis)2-(4-(2-methyl-4-(((1S,2S)-2-(5-methylpyridin-2-yl)cyclopropyl)methoxy)pyrimidin-5-yl)cyclohexyl)propan-2-ol] |
| 0.06 | COc1ccc([C@H]2C[C@@H]2COc2nc(C)ncc2-c2ccc(C3(O)CCCC3)nc2)nc1 [Example 89, 1-(5-(4-(((1S,2S)-2-(5-methoxypyridin-2-yl)cyclopropyl)methoxy)-2-methylpyrimidin-5-yl)pyridin-2-yl)cyclopentanol] |
| 4.03 | Cc1ncc(-c2cccn3ccnc23)c(OC[C@H]2C[C@@H]2c2ccc3ccccc3n2)n1 [Example 134, 2-((1S,2S)-2-((5-(imidazo[1,2-a]pyridin-8-yl)-2-methylpyrimidin-4-yloxy)methyl)cyclopropyl)quinoline] |
| 2.2 | COC(=O)c1ccc(-c2cnc(C)nc2OC[C@H]2C[C@@H]2c2ccc(C)cn2)cn1 [Example 47, methyl 5-(2-methyl-4-(((1S,2S)-2-(5-methylpyridin-2-yl)cyclopropyl)methoxy)pyrimidin-5-yl)picolinate] |
| 1.75 | COc1ccc([C@H]2C[C@@H]2COc2nc(C)ncc2-c2ccc([S+](C)[O-])nc2)nc1 (single isomer, unassigned) [Example 64] |
| 0.46 | Cc1ccc([C@H]2C[C@@H]2COc2nc(C)ncc2-c2cc(F)cc(F)c2)nc1 [Example 7, 5-(3,5-difluorophenyl)-2-methyl-4-(((1S,2S)-2-(5-methylpyridin-2-yl)cyclopropyl)methoxy)pyrimidine] |
| 1.47 | Cc1ccnc([C@H]2C[C@@H]2COc2nc(C)ncc2-c2cn(C)nc2C(C)O)c1 (stereo partly drawn) [Example 159, 1-(1-methyl-4-(2-methyl-4-(((1S,2S)-2-(4-methylpyridin-2-yl)cyclopropyl)methoxy)pyrimidin-5-yl)-1H-pyrazol-3-yl)ethanol] |
| 1.78 | COc1ccc([C@H]2C[C@@H]2COc2nc(C)ncc2-c2ccc(-c3nnnn3C)nc2)nc1 [Example 231, 4-(((1S,2S)-2-(5-methoxypyridin-2-yl)cyclopropyl)methoxy)-2-methyl-5-(6-(1-methyl-1H-tetrazol-5-yl)pyridin-3-yl)pyrimidine] |
